According to the kinase profiling compilation of Christmann-Franck et al. (2016):

Columns and labels:
Assay in all cases: radiometric filter-binding kinase assay, Kinase HotSpot
Conditions in all cases: compound 0.5 µM; ATP 10 µM
ACVRL1 (human) = ACVRL1 (human) (UniProt P37023)
AKT1 (human) = AKT1 (human) (UniProt P31749)
ALK (human) = ALK (human) (UniProt Q9UM73)
CAMK1D (human) = CAMK1D (human) (UniProt Q8IU85)
CAMK4 (human) = CAMK4 (human) (UniProt Q16566)
CDK4 CCND3 (human) = CDK4 CCND3 (human) (UniProt P30281+P11802)
CSF1R (human) = CSF1R (human) (UniProt P07333)
DYRK3 (human) = DYRK3 (human) (UniProt O43781)
EPHA1 (human) = EPHA1 (human) (UniProt P21709)
EPHA3 (human) = EPHA3 (human) (UniProt P29320)
EPHA7 (human) = EPHA7 (human) (UniProt Q15375)
FLT1 (human) = FLT1 (human) (UniProt P17948)
FRK (human) = FRK (human) (UniProt P42685)
Chain of FRK (human) (P42685 whole entry, looked up): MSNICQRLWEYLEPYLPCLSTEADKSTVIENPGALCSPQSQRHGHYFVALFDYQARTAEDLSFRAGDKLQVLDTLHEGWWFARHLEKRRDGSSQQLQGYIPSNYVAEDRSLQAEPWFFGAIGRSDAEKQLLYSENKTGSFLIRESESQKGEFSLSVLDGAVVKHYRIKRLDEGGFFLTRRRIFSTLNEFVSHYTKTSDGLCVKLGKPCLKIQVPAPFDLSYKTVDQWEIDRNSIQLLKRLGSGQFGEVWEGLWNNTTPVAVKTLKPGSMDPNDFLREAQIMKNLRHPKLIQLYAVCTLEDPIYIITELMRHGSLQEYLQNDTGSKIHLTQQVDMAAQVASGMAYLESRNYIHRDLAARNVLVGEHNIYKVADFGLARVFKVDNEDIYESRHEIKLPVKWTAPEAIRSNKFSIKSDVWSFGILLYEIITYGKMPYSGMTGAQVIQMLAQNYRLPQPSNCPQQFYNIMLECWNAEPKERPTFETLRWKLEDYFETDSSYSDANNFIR

GRK7 (human) = GRK7 (human) (UniProt Q8WTQ7)
GSG2 (human) = GSG2 (human) (UniProt Q8TF76)
GSK3A (human) = GSK3A (human) (UniProt P49840)
HIPK2 (human) = HIPK2 (human) (UniProt Q9H2X6)
LCK (human) = LCK (human) (UniProt P06239)
MAP4K5 (human) = MAP4K5 (human) (UniProt Q9Y4K4)
Chain of MAP4K5 (human) (Q9Y4K4 whole entry, looked up): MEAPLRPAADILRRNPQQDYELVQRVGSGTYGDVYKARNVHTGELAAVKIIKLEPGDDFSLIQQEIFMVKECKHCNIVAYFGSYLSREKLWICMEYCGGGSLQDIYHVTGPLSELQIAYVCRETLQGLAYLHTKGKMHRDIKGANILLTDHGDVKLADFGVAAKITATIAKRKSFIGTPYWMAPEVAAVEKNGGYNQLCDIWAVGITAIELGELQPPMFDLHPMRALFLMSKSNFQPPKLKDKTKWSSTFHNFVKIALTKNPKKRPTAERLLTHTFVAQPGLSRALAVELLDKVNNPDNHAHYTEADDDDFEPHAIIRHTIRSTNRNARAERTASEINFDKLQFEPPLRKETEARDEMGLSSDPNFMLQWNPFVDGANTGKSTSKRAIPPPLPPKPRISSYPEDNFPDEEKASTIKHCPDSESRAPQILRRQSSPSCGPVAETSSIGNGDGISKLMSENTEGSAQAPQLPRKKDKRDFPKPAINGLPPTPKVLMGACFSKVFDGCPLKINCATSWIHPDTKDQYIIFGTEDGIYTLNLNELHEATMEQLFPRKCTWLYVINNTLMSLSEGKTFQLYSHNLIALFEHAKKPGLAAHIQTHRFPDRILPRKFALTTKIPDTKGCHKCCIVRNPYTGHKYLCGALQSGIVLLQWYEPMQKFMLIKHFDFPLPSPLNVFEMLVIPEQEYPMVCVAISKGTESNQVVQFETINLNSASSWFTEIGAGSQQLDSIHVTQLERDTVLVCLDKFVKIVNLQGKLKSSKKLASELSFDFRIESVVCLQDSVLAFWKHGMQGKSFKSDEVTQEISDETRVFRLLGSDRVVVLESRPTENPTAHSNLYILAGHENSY

MAPKAPK3 (human) = MAPKAPK3 (human) (UniProt Q16644)
MAPKAPK5 (human) = MAPKAPK5 (human) (UniProt Q8IW41)
MARK1 (human) = MARK1 (human) (UniProt Q9P0L2)
Chain of MARK1 (human) (Q9P0L2 whole entry, looked up): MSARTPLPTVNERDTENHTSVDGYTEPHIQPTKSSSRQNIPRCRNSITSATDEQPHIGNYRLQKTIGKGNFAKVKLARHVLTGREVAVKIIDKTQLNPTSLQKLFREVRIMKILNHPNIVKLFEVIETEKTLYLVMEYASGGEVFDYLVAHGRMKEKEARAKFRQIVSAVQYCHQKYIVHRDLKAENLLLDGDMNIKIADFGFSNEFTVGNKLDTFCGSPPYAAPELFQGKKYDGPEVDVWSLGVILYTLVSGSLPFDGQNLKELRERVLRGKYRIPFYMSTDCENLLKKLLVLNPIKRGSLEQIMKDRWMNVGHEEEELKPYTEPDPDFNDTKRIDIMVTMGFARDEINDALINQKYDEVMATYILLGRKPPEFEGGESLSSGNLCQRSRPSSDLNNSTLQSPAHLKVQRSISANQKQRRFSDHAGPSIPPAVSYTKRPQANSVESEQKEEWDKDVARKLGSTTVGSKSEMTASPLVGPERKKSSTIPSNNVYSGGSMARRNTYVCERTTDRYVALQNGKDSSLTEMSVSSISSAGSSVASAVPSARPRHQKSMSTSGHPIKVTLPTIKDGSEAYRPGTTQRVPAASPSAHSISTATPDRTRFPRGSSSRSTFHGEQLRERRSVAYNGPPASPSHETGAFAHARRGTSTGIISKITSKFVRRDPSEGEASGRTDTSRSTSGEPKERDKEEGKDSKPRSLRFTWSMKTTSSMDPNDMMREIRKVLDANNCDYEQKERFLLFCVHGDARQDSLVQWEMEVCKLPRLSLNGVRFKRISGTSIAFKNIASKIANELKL

MST1R (human) = MST1R (human) (UniProt Q04912)
MUSK (human) = MUSK (human) (UniProt O15146)
NEK9 (human) = NEK9 (human) (UniProt Q8TD19)
NLK (human) = NLK (human) (UniProt Q9UBE8)
OXSR1 (human) = OXSR1 (human) (UniProt O95747)
PAK4 (human) = PAK4 (human) (UniProt O96013)
Chain of PAK4 (human) (O96013 whole entry, looked up): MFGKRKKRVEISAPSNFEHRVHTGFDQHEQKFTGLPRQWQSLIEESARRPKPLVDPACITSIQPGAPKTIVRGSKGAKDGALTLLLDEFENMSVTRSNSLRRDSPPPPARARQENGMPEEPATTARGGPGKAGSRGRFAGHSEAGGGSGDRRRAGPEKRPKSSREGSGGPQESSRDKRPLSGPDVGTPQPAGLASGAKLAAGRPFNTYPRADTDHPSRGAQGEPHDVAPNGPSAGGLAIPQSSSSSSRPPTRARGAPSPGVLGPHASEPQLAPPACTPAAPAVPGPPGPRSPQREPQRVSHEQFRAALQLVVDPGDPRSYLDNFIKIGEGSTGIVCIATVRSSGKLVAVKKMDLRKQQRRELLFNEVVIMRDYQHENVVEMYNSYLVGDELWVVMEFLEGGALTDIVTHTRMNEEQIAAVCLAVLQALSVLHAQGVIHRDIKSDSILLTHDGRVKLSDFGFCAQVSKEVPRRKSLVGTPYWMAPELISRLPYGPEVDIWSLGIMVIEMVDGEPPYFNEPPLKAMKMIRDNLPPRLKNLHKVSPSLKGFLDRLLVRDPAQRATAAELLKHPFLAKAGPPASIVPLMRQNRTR

PHKG1 (human) = PHKG1 (human) (UniProt Q16816)
PKN2 (human) = PKN2 (human) (UniProt Q16513)
PRKCZ (human) = PRKCZ (human) (UniProt Q05513)
ROS1 (human) = ROS1 (human) (UniProt P08922)
RPS6KA6 KD1 KD2 (human) = RPS6KA6 KD1 KD2 (human) (UniProt Q9UK32)
SRC (human) = SRC (human) (UniProt P12931)
STK33 (human) = STK33 (human) (UniProt Q9BYT3)
Chain of STK33 (human) (Q9BYT3 whole entry, looked up): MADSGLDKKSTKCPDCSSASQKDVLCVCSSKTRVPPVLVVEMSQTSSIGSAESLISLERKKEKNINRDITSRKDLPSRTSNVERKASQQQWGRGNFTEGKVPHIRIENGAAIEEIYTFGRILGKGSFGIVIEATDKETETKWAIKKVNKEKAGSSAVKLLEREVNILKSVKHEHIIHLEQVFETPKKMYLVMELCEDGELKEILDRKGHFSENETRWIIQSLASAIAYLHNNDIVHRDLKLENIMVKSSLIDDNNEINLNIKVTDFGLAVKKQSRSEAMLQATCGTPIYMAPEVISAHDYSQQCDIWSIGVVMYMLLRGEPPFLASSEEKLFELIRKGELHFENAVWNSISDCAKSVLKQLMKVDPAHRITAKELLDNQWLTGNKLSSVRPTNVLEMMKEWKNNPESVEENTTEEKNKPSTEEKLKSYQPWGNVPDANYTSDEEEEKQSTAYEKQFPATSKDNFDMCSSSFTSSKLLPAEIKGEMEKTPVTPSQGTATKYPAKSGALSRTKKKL

STK39 (human) = STK39 (human) (UniProt Q9UEW8)
TAOK1 (human) = TAOK1 (human) (UniProt Q7L7X3)
TAOK2 (human) = TAOK2 (human) (UniProt Q9UL54)
TEC (human) = TEC (human) (UniProt P42680)
Chain of TEC (human) (P42680 whole entry, looked up): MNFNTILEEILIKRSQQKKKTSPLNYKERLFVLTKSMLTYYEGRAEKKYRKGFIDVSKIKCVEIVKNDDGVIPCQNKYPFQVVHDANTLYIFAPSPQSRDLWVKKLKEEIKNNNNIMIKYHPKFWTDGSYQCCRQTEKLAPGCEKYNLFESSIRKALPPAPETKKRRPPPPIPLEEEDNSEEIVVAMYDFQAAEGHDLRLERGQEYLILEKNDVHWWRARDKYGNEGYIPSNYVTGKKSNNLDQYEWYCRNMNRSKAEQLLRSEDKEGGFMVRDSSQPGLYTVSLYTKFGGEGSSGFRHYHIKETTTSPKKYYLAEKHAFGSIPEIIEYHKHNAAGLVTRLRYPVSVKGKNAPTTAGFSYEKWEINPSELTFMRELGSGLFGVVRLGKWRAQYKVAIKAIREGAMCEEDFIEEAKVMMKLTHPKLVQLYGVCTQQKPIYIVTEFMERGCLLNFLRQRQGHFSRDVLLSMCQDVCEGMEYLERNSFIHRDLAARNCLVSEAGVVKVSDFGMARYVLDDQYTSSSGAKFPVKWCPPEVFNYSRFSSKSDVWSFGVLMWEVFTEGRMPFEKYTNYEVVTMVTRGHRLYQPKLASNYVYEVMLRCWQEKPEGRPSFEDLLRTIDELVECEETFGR

TSSK1B (human) = TSSK1B (human) (UniProt Q9BXA7)
ZAP70 (human) = ZAP70 (human) (UniProt P43403)

Chain of CAMK4 (human) (Q16566 whole entry, looked up): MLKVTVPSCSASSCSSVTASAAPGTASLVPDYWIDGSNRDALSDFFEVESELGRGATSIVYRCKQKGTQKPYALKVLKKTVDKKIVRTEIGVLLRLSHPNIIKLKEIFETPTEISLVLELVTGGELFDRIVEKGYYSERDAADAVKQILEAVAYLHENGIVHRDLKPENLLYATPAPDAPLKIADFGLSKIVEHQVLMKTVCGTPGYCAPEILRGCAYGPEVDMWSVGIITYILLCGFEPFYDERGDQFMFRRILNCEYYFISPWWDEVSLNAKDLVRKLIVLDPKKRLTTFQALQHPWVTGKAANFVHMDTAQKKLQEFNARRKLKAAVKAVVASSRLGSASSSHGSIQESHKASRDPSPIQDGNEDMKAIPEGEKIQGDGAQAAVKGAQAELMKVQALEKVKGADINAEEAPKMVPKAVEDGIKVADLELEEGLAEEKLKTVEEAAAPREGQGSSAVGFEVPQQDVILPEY
Chain of AKT1 (human) (P31749 whole entry, looked up): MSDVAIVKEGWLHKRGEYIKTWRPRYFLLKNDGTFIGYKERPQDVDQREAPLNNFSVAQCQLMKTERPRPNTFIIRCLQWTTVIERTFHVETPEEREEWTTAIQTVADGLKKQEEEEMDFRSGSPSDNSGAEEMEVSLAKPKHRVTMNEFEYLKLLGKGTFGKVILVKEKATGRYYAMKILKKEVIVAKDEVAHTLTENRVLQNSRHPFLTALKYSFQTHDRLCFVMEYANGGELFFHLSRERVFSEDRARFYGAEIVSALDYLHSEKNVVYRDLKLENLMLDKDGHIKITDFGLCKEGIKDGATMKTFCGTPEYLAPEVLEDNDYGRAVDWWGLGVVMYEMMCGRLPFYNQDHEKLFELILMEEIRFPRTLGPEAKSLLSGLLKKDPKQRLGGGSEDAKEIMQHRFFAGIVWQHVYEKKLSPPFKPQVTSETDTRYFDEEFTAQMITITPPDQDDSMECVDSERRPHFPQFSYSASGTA

## CCN1/C(=C/C(C)=O)Sc2ccc(OC)cc21
ACVRL1 (human)
  residual activity: 102%
AKT1 (human)
  residual activity: 90.1%
ALK (human)
  residual activity: 105%
CAMK1D (human)
  residual activity: 105%
CAMK4 (human)
  residual activity: 99.9%
CDK4 CCND3 (human)
  residual activity: 97.4%
CSF1R (human)
  residual activity: 93.8%
DYRK3 (human)
  residual activity: 50.4%
EPHA1 (human)
  residual activity: 95.8%
EPHA3 (human)
  residual activity: 89.9%
EPHA7 (human)
  residual activity: 95.8%
FLT1 (human)
  residual activity: 88.4%
FRK (human)
  residual activity: 99.5%
GRK7 (human)
  residual activity: 104%
GSG2 (human)
  residual activity: 25%
GSK3A (human)
  residual activity: 85.7%
HIPK2 (human)
  residual activity: 100%
LCK (human)
  residual activity: 99.4%
MAP4K5 (human)
  residual activity: 92.3%
MAPKAPK3 (human)
  residual activity: 90.1%
MAPKAPK5 (human)
  residual activity: 112%
MARK1 (human)
  residual activity: 91%
MST1R (human)
  residual activity: 94.5%
MUSK (human)
  residual activity: 28.4%
NEK9 (human)
  residual activity: 102%
NLK (human)
  residual activity: 103%
OXSR1 (human)
  residual activity: 93.5%
PAK4 (human)
  residual activity: 108%
PHKG1 (human)
  residual activity: 89.5%
PKN2 (human)
  residual activity: 99.7%
PRKCZ (human)
  residual activity: 98%
ROS1 (human)
  residual activity: 113%
RPS6KA6 KD1 KD2 (human)
  residual activity: 89%
SRC (human)
  residual activity: 94.4%
STK33 (human)
  residual activity: 57.4%
STK39 (human)
  residual activity: 95.9%
TAOK1 (human)
  residual activity: 92.4%
TAOK2 (human)
  residual activity: 101%
TEC (human)
  residual activity: 116%
TSSK1B (human)
  residual activity: 110%
ZAP70 (human)
  residual activity: 103%

## C#Cc1cccc(Nc2ncnc3cc(OCCOC)c(OCCOC)cc23)c1
ACVRL1 (human)
  residual activity: 101%
AKT1 (human)
  residual activity: 93.7%
CAMK1D (human)
  residual activity: 98.8%
CAMK4 (human)
  residual activity: 94.8%
CDK4 CCND3 (human)
  residual activity: 103%
DYRK3 (human)
  residual activity: 83.5%
EPHA1 (human)
  residual activity: 94.5%
EPHA3 (human)
  residual activity: 93.2%
EPHA7 (human)
  residual activity: 69.8%
FLT1 (human)
  residual activity: 87.5%
FRK (human)
  residual activity: 102%
GRK7 (human)
  residual activity: 98.3%
GSG2 (human)
  residual activity: 80.9%
GSK3A (human)
  residual activity: 99.3%
HIPK2 (human)
  residual activity: 99.3%
MAP4K5 (human)
  residual activity: 95.6%
MAPKAPK3 (human)
  residual activity: 98.1%
MAPKAPK5 (human)
  residual activity: 89.7%
MARK1 (human)
  residual activity: 130%
MST1R (human)
  residual activity: 93.6%
MUSK (human)
  residual activity: 94.6%
NEK9 (human)
  residual activity: 99.5%
NLK (human)
  residual activity: 103%
OXSR1 (human)
  residual activity: 102%
PAK4 (human)
  residual activity: 91.8%
PHKG1 (human)
  residual activity: 93.2%
PRKCZ (human)
  residual activity: 92.3%
ROS1 (human)
  residual activity: 99.6%
RPS6KA6 KD1 KD2 (human)
  residual activity: 99.1%
SRC (human)
  residual activity: 77.4%
STK33 (human)
  residual activity: 90.8%
STK39 (human)
  residual activity: 97%
TAOK1 (human)
  residual activity: 98.3%
TAOK2 (human)
  residual activity: 106%
TEC (human)
  residual activity: 96.2%
TSSK1B (human)
  residual activity: 78.9%
ZAP70 (human)
  residual activity: 94.4%
